In patent publication US7615557B2, “Tetrahydro-naphthalene and urea derivatives” (Xention Limited, priority 2003, dated 2009):

Legend:
[1] = target: T1, Human vanilloid receptor (hVR1) (Homo sapiens, UniProt Q8NER1); assay: Capsaicin-induced Ca2+ influx in the human VR1-transfected CHO cell line (Assay 1); type: cell-based; conditions: human VR1-CHOluc9aeq cells, stimulation with 10 nM capsaicin, Fluo-3 fluorescence (FDSS-3000); read-out: Activity Class (IC50)
T1 construct: expressed in transfected cells
From the text: [Measurement of Capsaicin-induced Ca^2+ influx in the Human VR1-transfected CHO Cell Line] (Assay 1)
• (1) Establishment of the Human VR1-CHOluc9aeq Cell Line • Human vanilloid receptor (hVR1) cDNA was cloned from libraries of axotomized dorsal root ganglia (WO 00/29577). The cloned hVR1 cDNA was constructed with pcDNA3 vector and transfected into a CHOluc9aeq cell line. The cell line contains aequorin and CRE-luciferase reporter genes as read-out signals. The transfectants were cloned by limiting dilution in selection medium (DMEM/F12 medium (Gibco BRL) supplemented with 10%
FCS, 1.4 mM Sodium pyruvate, 20 mM HEPES, 0.15% Sodium bicarbonate, 100 U/ml penicillin, 100 μg/ml streptomycin, 2 mM glutamine, non-essential amino acids and 2 mg/ml G418). Ca^2+ influx was examined in the capsaicin-stimulated clones. A high responder clone was selected and used for furter experiments in the project. The human VR1-CHOluc9aeq cells were maintained in the selection medium and passaged every 3-4 days at 1-2.5×10^5 cells/flask ([…]). • (2) Measurement of Ca^2+ Influx Using FDSS-3000 • Human VR1-CHOluc9aeq cells were suspended in a culture medium which is the same as the selection medium except for G418 and seeded at a density of 1,000 cells per well into 384-well plates (black walled clear-base/Nalge Nunc International). Following the culture for 48 hrs the medium was changed to 2 μM Fluo-3 AM (Molecular Probes) and 0.02% Puronic F-127 in assay buffer (Hank's balanced salt solution (HBSS), 17 mM HEPES (pH7.4), 1 mM Probenecid, 0.1% BSA) and the cells were incubated for 60 min at 25° C. After washing twice with assay buffer the cells were incubated with a test compound or vehicle for 20 min at 25° C. Mobilization of cytoplasmic Ca^2+ was measured by FDSS-3000 (λex=488 nm, λem=540 nm/Hamamatsu Photonics) for 60 sec after the stimulation with 10 nM capsaicin. Integral R was calculated and compared with controls. [Measurement of the Capsaicin-induced Ca^2+ Influx in Primary Cultured Rat Dorsal Root Ganglia Neurons] (Assay 2) • (1) Preparation of Rat Dorsal Root Ganglia Neurons • New born Wister rats (5-11 days) were sacrificed and dorsal root ganglia (DRG) was removed. DRG was incubated with 0.1% trypsin (Gibco BRL) in PBS(−) (Gibco BRL) for 30 min at 37° C., then a half volume of fetal calf serum (FCS) was added and the cells were spun down. The DRG neuron cells were resuspended in Ham F12/5% FCS/5% horse serum (Gibco BRL) and dispersed by repeated pipetting and passing through 70 μm mesh (Falcon). The culture plate was incubated for 3 hours at 37° C. to remove contaminating Schwann cells. Non-adherent cells were recovered and further cultured in laminin-coated 384 well plates (Nunc) at 1×10^4 cells/50 μl/well for 2 days in the presence of 50 ng/ml recombinant rat NGF (Sigma) and 50 μM 5-fluorodeoxyuridine (Sigma). • (2) Ca^2+ Mobilization Assay • DRG neuron cells were washed twice with HBSS supplemented with 17 mM BEPES (pH 7.4) and 0.1% BSA. After incubating with 2 μM fluo-3AM (Volectuar Probe), 0.02% PF127 (Gibco BRL) and 1 mM probenecid (Sigma) for 40 min at 37° C., cells were washed 3 times. The cells were incubated with VR1 antagonists or vehicle (dimethylsulfoxide) and then with 1 μM capsaicin in FDSS-6000 (λex=480 mn, λem=520 nm/Hamamatsu Photonics). The fluorescence changes at […] were monitored for 2.5 min. Integral R was calculated and compared with controls. [Organ Bath Assay to Measure the Capsaicin-induced Bladder Contraction] (Assay 3) • Male Wistar rats (10 week old) were anesthetized with ether and sacrificed by dislocating the necks. The whole urinary bladder was excised and placed in oxygenated Modified Krebs-Henseleit solution (pH 7.4) of the following composition (112 mM NaCl, 5.9 mM KCl, 1.2 mM MgCl2, 1.2 mM NaH2PO4, 2 mM CaCl2, […], 12 mM glucose). Contractile responses of the urinary bladder were studied as described previously [Maggi C A et al: Br. J. Pharmacol. 108: 801-805, 1993]. […]

T1 sequence (Q8NER1 whole entry): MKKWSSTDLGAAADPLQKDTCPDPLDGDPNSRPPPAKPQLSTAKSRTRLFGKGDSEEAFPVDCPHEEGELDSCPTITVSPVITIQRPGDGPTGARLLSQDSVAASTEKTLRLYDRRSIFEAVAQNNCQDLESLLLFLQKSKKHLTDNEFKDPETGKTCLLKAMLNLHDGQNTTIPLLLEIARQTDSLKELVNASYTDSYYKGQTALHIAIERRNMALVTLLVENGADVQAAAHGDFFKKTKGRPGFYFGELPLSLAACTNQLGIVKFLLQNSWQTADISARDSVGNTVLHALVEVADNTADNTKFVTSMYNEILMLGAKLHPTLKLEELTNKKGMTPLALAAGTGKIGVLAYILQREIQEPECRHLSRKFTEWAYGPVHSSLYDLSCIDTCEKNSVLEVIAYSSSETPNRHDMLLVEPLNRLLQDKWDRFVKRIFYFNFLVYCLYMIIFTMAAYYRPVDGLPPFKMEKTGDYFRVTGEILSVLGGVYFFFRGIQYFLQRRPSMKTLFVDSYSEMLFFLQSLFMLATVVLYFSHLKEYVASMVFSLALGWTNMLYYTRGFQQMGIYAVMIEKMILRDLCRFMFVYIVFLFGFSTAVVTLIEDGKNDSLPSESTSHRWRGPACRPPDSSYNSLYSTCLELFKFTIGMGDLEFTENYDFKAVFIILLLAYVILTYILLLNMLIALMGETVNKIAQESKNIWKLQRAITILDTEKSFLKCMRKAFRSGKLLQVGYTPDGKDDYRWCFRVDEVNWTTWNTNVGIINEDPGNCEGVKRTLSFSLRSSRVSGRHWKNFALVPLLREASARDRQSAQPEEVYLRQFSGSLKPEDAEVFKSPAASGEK

## O=C(Nc1cccc2c1C[C@@H](O)CC2)C1CCN(c2ccc(C(F)(F)F)cc2Cl)CC1 [Example 1-1, 1-[2-Chloro-4-(trifluoromethyl)phenyl]-N-[(7S)-7-hydroxy-5,6,7,8-tetrahydro-naphthalen-1-yl]piperidine-4-carboxamide]
[1]
  IC50: < 0.1 µM

## O=C(Nc1cccc2c1C[C@H](O)CC2)C1CCN(c2cccc(Cl)c2)CC1 [Example 1-2, 1-[3-Chlorophenyl]-N-[(7R)-7-hydroxy-5,6,7,8-tetrahydronaphthalen-1-yl]piperidine-4-carboxamide]
[1]
  IC50: < 0.1 µM

## O=C(Nc1cccc2c1CC(O)CC2)C1CCN(c2ccccc2Cl)CC1 (stereo not drawn) [Example 1-3]
[1]
  IC50: < 0.1 µM
other
  melting point: 210 °C

## O=C(Nc1cccc2c1CC(O)CC2)C1CCN(c2ccccc2[N+](=O)[O-])CC1 (stereo not drawn) [Example 1-4, N-(7-Hydroxy-5,6,7,8-tetrahydronaphthalen-1-yl)-1-(2-nitrophenyl)piperidine-4-carboxamide]
[1]
  IC50: < 0.1 µM
other
  melting point: 170 °C

## O=C(Nc1cccc2c1CC(O)CC2)C1CCN(c2ccc(C(F)(F)F)cc2[N+](=O)[O-])CC1 (stereo not drawn) [Example 1-5, N-(7-Hydroxy-5,6,7,8-tetrahydronaphthalen-1-yl)-1-[2-nitro(trifluoromethyl)phenyl]piperidine-4-carboxamide]
[1]
  IC50: < 0.1 µM
other
  melting point: 218 °C

## O=C(Nc1cccc2c1CC(O)CC2)C1CCN(c2ccccc2F)CC1 (stereo not drawn) [Example 1-6, 1-(2-Fluorophenyl)-N-(7-hydroxy-5,6,7,8-tetrahydronaphthalen-1-yl)piperidine-4-carboxamide]
[1]
  IC50: < 0.1 µM
other
  melting point: 207 °C

## O=C(Nc1cccc2c1CC(O)CC2)C1CCN(c2ccc(F)cc2)CC1 (stereo not drawn) [Example 1-7, 1-(4-Fluorophenyl)-N-(7-hydroxy-5,6,7,8-tetrahydronaphthalen-1-yl)piperidine-4-carboxamide]
[1]
  IC50: < 0.1 µM
other
  melting point: 205 °C

## O=C(Nc1cccc2c1CC(O)CC2)C1CCN(c2ccc(Cl)cc2C(F)(F)F)CC1 (stereo not drawn) [Example 1-8, 1-[4-Chloro-2-(trifluoromethyl)phenyl]-N-(7-hydroxy-5,6,7,8-tetrahydronaphthalen-1-yl)piperidine-4-carboxamide]
[1]
  IC50: < 0.1 µM
other
  melting point: 182 °C

## O=C(Nc1cccc2c1CC(O)CC2)C1CCN(c2ccc(C(F)(F)F)cc2)CC1 (stereo not drawn) [Example 1-9, N-(7-Hydroxy-5,6,7,8-tetrahydronaphthalen-1-yl)-1-[4-(trifuoromethyl)phenyl]piperidine-4-carboxamide]
[1]
  IC50: < 0.1 µM
other
  melting point: 222 °C

## O=C(Nc1cccc2c1CC(O)CC2)C1CCN(c2ccc(C(F)(F)F)cc2Cl)CC1 (stereo not drawn) [Example 1-10, 1-[2-Chloro-4-(trifluoromethyl)phenyl]-N-(7-hydroxy-5,6,7,8-tetrahydronaphthalen-1-yl)piperidine-4-carboxamide]
[1]
  IC50: < 0.1 µM
other
  melting point: 226 °C

## O=C(Nc1cccc2c1C[C@H](O)CC2)C1CCN(c2ccc(F)cc2)CC1 [Example 1-11, 1-(4-Fluorophenyl)-N-[(7R)-7-hydroxy-5,6,7,8-tetrahydronaphthalen-1-yl]piperidine-4-carboxamide]
[1]
  IC50: < 0.1 µM
other
  melting point: 205 °C

## O=C(Nc1cccc2c1C[C@@H](O)CC2)C1CCN(c2ccc(F)cc2)CC1 [Example 1-12, 1-(4-Fluorophenyl)-N-[(7S)-7-hydroxy-5,6,7,8-tetrahydronaphthalen-1-yl]piperidine-4-carboxamide]
[1]
  IC50: < 0.1 µM
other
  melting point: 205 °C

## O=C(Nc1cccc2c1C[C@H](O)CC2)C1CCN(c2ccc(C(F)(F)F)cc2Cl)CC1 [Example 1-13, 1-[2-Chloro-4-(trifluoromethyl)phenyl]-N-[(7R)-7-hydroxy-5,6,7,8-tetrahydronaphthalen-1-yl]piperidine-4-carboxamide]
[1]
  IC50: < 0.1 µM
other
  melting point: 226 °C

## O=C(Nc1cccc2c1C[C@H](O)CC2)C1CCN(c2ccccc2)CC1 [Example 1-14]
[1]
  IC50: < 0.1 µM

## O=C(Nc1cccc2c1C[C@H](O)CC2)C1CCN(c2cccc(C(F)(F)F)c2)CC1 [Example 1-15, N-[(7R)-7-Hydroxy-5,6,7,8-tetrahydronaphthalen-1-yl]-1-[3-trifluoromethyl-phenyl]piperidine-4-carboxamide]
[1]
  IC50: < 0.1 µM

## O=C(Nc1cccc2c1C[C@H](O)CC2)C1CCN(c2cccc(OC(F)(F)F)c2)CC1 [Example 1-16, N-[(7R)-7-Hydroxy-5,6,7,8-tetrahydronaphthalen-1-yl]-1-[3-trifluoromethoxy-phenyl]piperidine-4-carboxamide]
[1]
  IC50: < 0.1 µM

## O=C(Nc1cccc2c1C[C@H](O)CC2)C1CCN(c2ccc(Cl)cc2Cl)CC1 [Example 1-17, 1-[2,4-Dichlorophenyl]-N-[(7R)-7-hydroxy-5,6,7,8-tetrahydronaphthalen-1-yl]piperidine-4-carboxamide]
[1]
  IC50: < 0.1 µM

## O=C(Nc1cccc2c1C[C@H](O)CC2)C1CCN(c2ccc(OC(F)(F)F)c(OC(F)(F)F)c2)CC1 [Example 1-18, 1-[3,4-Bis[trifluoromethoxy]phenyl]-N-[(7R)-7-hydroxy-5,6,7,8-tetrahydro-naphthalen-1-yl]piperidine-4-carboxamide]
[1]
  IC50: < 0.1 µM

## O=C(Nc1cccc2c1C[C@H](O)CC2)C1CCN(c2ccc(OC(F)(F)F)cc2)CC1 [Example 1-19, N-[(7R)-7-Hydroxy-5,6,7,8-tetrahydronaphthalen-1-yl]-1-[4-trifluoromethoxy-phenyl]piperidine-4-carboxamide]
[1]
  IC50: < 0.1 µM

## O=C(Nc1cccc2c1C[C@H](O)CC2)C1CCN(c2nccc(C(F)(F)F)n2)CC1 [Example 1-20, N-[(7R)-7-Hydroxy-5,6,7,8-tetrahydronaphthalen-1-yl]-1-[4-trifluoromethyl-pyrimidin-2-yl]-piperidine-4-carboxamide]
[1]
  IC50: < 0.1 µM

## O=C(Nc1cccc2c1C[C@H](O)CC2)C1CCN(c2ncc(Cl)cn2)CC1 [Example 1-21, 1-[5-Chloropyrimidin-2-yl]-N-[(7R)-7-hydroxy-5,6,7,8-tetrahydronaphthalen-1-yl]piperidine-4-carboxamide]
[1]
  IC50: < 0.1 µM

## O=C(Nc1cccc2c1C[C@H](O)CC2)C1CCN(c2ccc([N+](=O)[O-])cc2Cl)CC1 [Example 1-22, 1-[2-Chloro-4-nitrophenyl]-N-[(7R)-7-hydroxy-5,6,7,8-tetrahydronaphthalen-1-yl]piperidine-4-carboxamide]
[1]
  IC50: < 0.1 µM

## CC(=O)Nc1cc(C(F)(F)F)ccc1N1CCC(C(=O)Nc2cccc3c2C[C@H](O)CC3)CC1 [Example 1-23]
[1]
  IC50: < 0.1 µM

## O=C(Nc1cccc2c1C[C@H](O)CC2)C1CCN(c2ccc(C(F)(F)F)cn2)CC1 [Example 1-24, N-[(7R)-7-Hydroxy-5,6,7,8-tetrahydronaphthalen-1-yl]-1-[5-(trifluoromethyl)-pyridin-2-yl]piperidine-4-carboxamide]
[1]
  IC50: < 0.1 µM

## O=C(Nc1cccc2c1C[C@H](O)CC2)C1CCN(c2ccc(C(F)(F)F)cc2)CC1 [Example 1-25, N-[(7R)-7-Hydroxy-5,6,7,8-tetrahydronaphthalen-1-yl]-1-[4-trifluoromethyl-phenyl]piperidine-4-carboxamide]
[1]
  IC50: < 0.1 µM
